Measurements: US12012408B2, “Purine compounds and method for the treatment of cancer” (THE ROYAL INSTITUTION FOR THE ADVANCEMENT OF …, priority 2018, dated 2024)

System: MDA-MB-231 and BT-20 cells
Experiment: MTT assay (short-term cell viability)
Type: cell-based
Protocol: The short-term effects of SLLN-15 on tumor cell growth were assessed using the 3-(4,5-dimethylthiazol-2-yl)-2,5-diphenylte-trazolium bromide (MTT; Sigma) assay. Cells were seeded at a density of 5000 cells/well in a 96-well plate and treated with SLLN-15 as indicated concentration or DMSO for 24 hours. MTT solution (5 mg/ml in RPMI 1640 medium) was added (20 μl/well), and plates were incubated for 4 hours in dark at 37° C., then the purple formazan crystals were then dissolved in 100 μl MTT solvent (4 mM HCl and 0.1% NP-40 in isopropanol). The plates were read on FLUOstar OPTIMA microplate reader (BMG Labtech, Ortenberg, Germany) at 570 nm. Assays were performed in triplicate on three independent experiments.

SMILES: c1nc2nc(Nc3ccc(N4CC[Se]CC4)cc3)nc(N[C@H]3CC[Se]C3)c2[nH]1 [SLLN-15]
- short-term and long-term cell viability (MTT and clonogenic assay) (SLLN-15 in presence of autophagy inhibitor 3-MA, FIGS. 5D and E): rescued both short-term and long-term cell viability
- cell viability (MTT) (time-dependent, SLLN-15 compared with vorinostat, FIG. 6A): markedly decreased cell viability
- overall cell viability (MTT) (treatment for 24 hours, dose-dependent, FIG. 1C): markedly decreased overall cell viability
